Laboratory results from paper PMC3380826 (2012).

Key:
[1] = system: Hum24; d(T2AG3)4 (DNA, G4) TTAGGGTTAGGGTTAGGGTTAGGG; experiment: CD melting at 295 nm; conditions: 10 mM Tris-HCl, 0.1 mM EDTA, pH 7.4, pre-formed G4, 2 µM strand
[2] = system: Hum48; d(T2AG3)8 (DNA, G4) TTAGGGTTAGGGTTAGGGTTAGGGTTAGGGTTAGGGTTAGGGTTAGGG; experiment: CD melting at 295 nm; conditions: 10 mM Tris-HCl, 0.1 mM EDTA, pH 7.4, pre-formed G4, 2 µM strand

ΔTm ([1]; 100 mM K+, ligand:DNA 20) [°C]	ΔTm ([2]; 100 mM K+, ligand:DNA 20) [°C]	ΔTm ([1]; 100 mM K+, ligand:DNA 10) [°C]	ΔTm ([1]; 100 mM Na+, ligand:DNA 10) [°C]	ΔTm ([2]; 100 mM K+, ligand:DNA 10) [°C]	ΔTm ([2]; 100 mM Na+, ligand:DNA 10) [°C]	Compound
5	9	–	–	–	–	CCOc1cc(-c2nc3ccc(N4CCN(CCO)CC4)cc3[nH]2)cc(-c2nc3ccc(N4CCN(CCO)CC4)cc3[nH]2)c1
–	–	22	11	21	13	OCCN1CCN(c2ccc3[nH]c(-c4cc(OCCOCCOCCOCCOCCOCCOc5cc(-c6nc7cc(N8CCN(CCO)CC8)ccc7[nH]6)cc(-c6nc7cc(N8CCN(CCO)CC8)ccc7[nH]6)c5)cc(-c5nc6cc(N7CCN(CCO)CC7)ccc6[nH]5)c4)nc3c2)CC1
–	–	12	–	18	–	OCCN1CCN(c2ccc3[nH]c(-c4cc(OCCOCCOCCOCCOCCOc5cc(-c6nc7cc(N8CCN(CCO)CC8)ccc7[nH]6)cc(-c6nc7cc(N8CCN(CCO)CC8)ccc7[nH]6)c5)cc(-c5nc6cc(N7CCN(CCO)CC7)ccc6[nH]5)c4)nc3c2)CC1
–	–	16	–	16	–	OCCN1CCN(c2ccc3[nH]c(-c4cc(OCCOCCOCCOCCOc5cc(-c6nc7cc(N8CCN(CCO)CC8)ccc7[nH]6)cc(-c6nc7cc(N8CCN(CCO)CC8)ccc7[nH]6)c5)cc(-c5nc6cc(N7CCN(CCO)CC7)ccc6[nH]5)c4)nc3c2)CC1
